According to patent US20100267561A1, “HERBICIDAL PYRIDAZINONE DERIVATIVES” (priority 2007, published 2010):

Assays:
Type in all cases: in vivo
[1] = tested on: southern (S.) sandbur (Cenchrus echinatus); test: Test E pre-/postemergence plant response; conditions: scale 0 to 100
Summary of the method: (§1)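 Plants scored visually versus controls on a 0–100 scale (100 = complete control) 14 to 21 days after treatment in the greenhouse. Test chemicals in a surfactant-containing non-phytotoxic solvent were applied to soil preemergence or to 1- to 4-leaf plants, 2–18 cm tall.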

[2] = tested on: pitted morningglory (Ipomoea lacunosa); test: Test E pre-/postemergence plant response; conditions: scale 0 to 100
Summary of the method: as §1

[3] = tested on: Italian ryegrass (Lolium multiflorum); test: Test E pre-/postemergence plant response; conditions: scale 0 to 100
Summary of the method: as §1

[4] = tested on: barnyardgrass (Echinochloa crus-galli); test: Test E pre-/postemergence plant response; conditions: scale 0 to 100
Summary of the method: as §1

[5] = tested on: common groundsel (Senecio vulgaris); test: Test E pre-/postemergence plant response; conditions: Postemergence, scale 0 to 100
Summary of the method: as §1

[6] = tested on: common chickweed (Stellaria media); test: Test E pre-/postemergence plant response; conditions: Postemergence, scale 0 to 100
Summary of the method: as §1

[7] = tested on: johnsongrass (Sorghum halepense); test: Test E pre-/postemergence plant response; conditions: scale 0 to 100
Summary of the method: as §1

[8] = tested on: annual bluegrass (Poa annua); test: Test E pre-/postemergence plant response; conditions: scale 0 to 100
Summary of the method: as §1

[9] = tested on: naked crabgrass (Digitaria nuda); test: Test E pre-/postemergence plant response; conditions: scale 0 to 100
Summary of the method: as §1

[10] = tested on: windgrass (Apera spica-venti); test: Test C pre-/postemergence plant response; conditions: Preemergence
Summary of the method: (§2)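 Ratings ran from 0 (no effect) to 100 (complete control) and were made visually against untreated controls 15–25 days after treatment in a controlled growth environment. Application was preemergence and, for some chemicals, postemergence at the 1- to 4-leaf stage (2–18 cm). Formulation was a non-phytotoxic solvent mixture with surfactant.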

[11] = tested on: winter barley (Hordeum vulgare); test: Test C pre-/postemergence plant response; conditions: Preemergence
Summary of the method: as §2

canola (Brassica rapa) = test: Test C pre-/postemergence plant response; conditions: Preemergence
Summary of the method: as §2

[12] = tested on: spring wheat (Triticum aestivum); test: Test C pre-/postemergence plant response; conditions: Preemergence
Summary of the method: as §2

[13] = 8 g ai/ha, scale 0 to 100 (0 no effect, 100 complete control)
[14] = 16 g ai/ha, scale 0 to 100 (0 no effect, 100 complete control)
[15] = 62 g ai/ha, scale 0 to 100, 0 no effect, 100 complete control
[16] = 31 g ai/ha, scale 0 to 100 (0 no effect, 100 complete control)

COC(=O)Oc1cnn(C)c(=O)c1-n1nc(-c2ccc(Cl)cc2)cc1C [Compound 33]
Plant response rating, Sandbur, S. ([1]; 16 g ai/ha, Preemergence): 90 | Plant response rating, Sandbur, S. ([1]; 31 g ai/ha, Preemergence): 90 | Plant response rating, Sandbur, S. ([1]; 62 g ai/ha, Preemergence): 100 | Plant response rating, Sandbur, S. ([1]; Postemergence, 8 g ai/ha): 65 | Plant response rating, Sandbur, S. ([1]; Postemergence, 16 g ai/ha): 75 | Plant response rating, Sandbur, S. ([1]; Postemergence, 31 g ai/ha): 80 | Plant response rating, Sandbur, S. ([1]; Postemergence, 62 g ai/ha): 90 | Plant response rating, Morningglory ([2]; 16 g ai/ha, Preemergence): 0 | Plant response rating, Morningglory ([2]; 31 g ai/ha, Preemergence): 0 | Plant response rating, Morningglory ([2]; 62 g ai/ha, Preemergence): 0 | Plant response rating, Morningglory ([2]; Postemergence, 8 g ai/ha): 0 | Plant response rating, Morningglory ([2]; Postemergence, 16 g ai/ha): 0 | Plant response rating, Morningglory ([2]; Postemergence, 31 g ai/ha): 0 | Plant response rating, Morningglory ([2]; Postemergence, 62 g ai/ha): 0 | Plant response rating, Ryegrass, Italian ([3]; 16 g ai/ha, Preemergence): 98 | Plant response rating, Ryegrass, Italian ([3]; 31 g ai/ha, Preemergence): 100 | Plant response rating, Ryegrass, Italian ([3]; 62 g ai/ha, Preemergence): 100 | Plant response rating, Ryegrass, Italian ([3]; Postemergence, 8 g ai/ha): 35 | Plant response rating, Ryegrass, Italian ([3]; Postemergence, 16 g ai/ha): 75 | Plant response rating, Ryegrass, Italian ([3]; Postemergence, 31 g ai/ha): 90 | Plant response rating, Ryegrass, Italian ([3]; Postemergence, 62 g ai/ha): 95 | Plant response rating, Barnyardgrass ([4]; 8 g ai/ha, Preemergence): 65 | Plant response rating, Barnyardgrass ([4]; 16 g ai/ha, Preemergence): 80 | Plant response rating, Barnyardgrass ([4]; 31 g ai/ha, Preemergence): 100 | Plant response rating, Barnyardgrass ([4]; 62 g ai/ha, Preemergence): 100 | Plant response rating, Barnyardgrass ([4]; Postemergence, 8 g ai/ha): 95 | Plant response rating, Barnyardgrass ([4]; Postemergence, 16 g ai/ha): 100 | Plant response rating, Barnyardgrass ([4]; Postemergence, 31 g ai/ha): 100 | Plant response rating, Barnyardgrass ([4]; Postemergence, 62 g ai/ha): 100 | Plant response rating, Groundsel ([5]; 8 g ai/ha): 0 | Plant response rating, Groundsel ([5]; 16 g ai/ha): 0 | Plant response rating, Groundsel ([5]; 31 g ai/ha): 0 | Plant response rating, Groundsel ([5]; 62 g ai/ha): 0 | Plant response rating, Chickweed ([6]; 8 g ai/ha): 0 | Plant response rating, Chickweed ([6]; 16 g ai/ha): 0 | Plant response rating, Chickweed ([6]; 31 g ai/ha): 0 | Plant response rating, Johnsongrass ([7]; 16 g ai/ha, Preemergence): 75 | Plant response rating, Johnsongrass ([7]; 31 g ai/ha, Preemergence): 85 | Plant response rating, Johnsongrass ([7]; 62 g ai/ha, Preemergence): 98 | Plant response rating, Johnsongrass ([7]; Postemergence, 8 g ai/ha): 50 | Plant response rating, Johnsongrass ([7]; Postemergence, 16 g ai/ha): 75 | Plant response rating, Johnsongrass ([7]; Postemergence, 31 g ai/ha): 98 | Plant response rating, Johnsongrass ([7]; Postemergence, 62 g ai/ha): 98 | Plant response rating, Bluegrass ([8]; 8 g ai/ha, Preemergence): 0 | Plant response rating, Bluegrass ([8]; 16 g ai/ha, Preemergence): 0 | Plant response rating, Bluegrass ([8]; 31 g ai/ha, Preemergence): 0 | Plant response rating, Bluegrass ([8]; 62 g ai/ha, Preemergence): 0 | Plant response rating, Bluegrass ([8]; Postemergence, 8 g ai/ha): 0 | Plant response rating, Bluegrass ([8]; Postemergence, 16 g ai/ha): 0 | Plant response rating, Bluegrass ([8]; Postemergence, 31 g ai/ha): 5 | Plant response rating, Bluegrass ([8]; Postemergence, 62 g ai/ha): 5 | Plant response rating, Crabgrass, Naked ([9]; 8 g ai/ha, Preemergence): 75 | Plant response rating, Crabgrass, Naked ([9]; 16 g ai/ha, Preemergence): 95 | Plant response rating, Crabgrass, Naked ([9]; 31 g ai/ha, Preemergence): 100 | Plant response rating, Crabgrass, Naked ([9]; 62 g ai/ha, Preemergence): 100 | Plant response rating, Crabgrass, Naked ([9]; Postemergence, 8 g ai/ha): 75 | Plant response rating, Crabgrass, Naked ([9]; Postemergence, 16 g ai/ha): 90 | Plant response rating, Crabgrass, Naked ([9]; Postemergence, 31 g ai/ha): 90 | Plant response rating, Crabgrass, Naked ([9]; Postemergence, 62 g ai/ha): 98 | Plant response rating, Windgrass [10, 13]: 0 | Plant response rating, Windgrass [10, 14]: 0 | Plant response rating, Windgrass [10, 15]: 50 | Plant response rating, Barley, Winter [11, 13]: 0 | Plant response rating, Barley, Winter [11, 14]: 0 | Plant response rating, Barley, Winter [11, 16]: 0 | Plant response rating, Barley, Winter [11, 15]: 20 | Plant response rating, Canola (canola (Brassica rapa); [13]): 0 | Plant response rating, Canola (canola (Brassica rapa); [14]): 0 | Plant response rating, Canola (canola (Brassica rapa); [16]): 0 | Plant response rating, Canola (canola (Brassica rapa); [15]): 0 | Plant response rating, Wheat, Spring [12, 13]: 0 | Plant response rating, Wheat, Spring [12, 14]: 0 | Plant response rating, Wheat, Spring [12, 16]: 20 | Plant response rating, Wheat, Spring [12, 15]: 50
